Laboratory results as given in ChEMBL document CHEMBL1201862, “PubChem BioAssay data set” (2004).
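96-well plates; 48 h exposure; 5 concentrations. Endpoints by linear interpolation between flanking doses. Not reached: highest tested concentration assigned. Abbreviation: GI50, concentration required for 50% inhibition of growth.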 Activity calls are given as the source filed them. Cut-off read from the data, not from the text of the source: active = GI50 up to about 1.1 µM and inactive = higher.

Assays:
Experiment in all cases: NCI anticancer screen, dose series, 48 h
[1] = system: ACHN
[2] = system: SW-620
[3] = system: SR
[4] = system: NCI-H23
[5] = system: BT-549
[6] = system: UO-31
[7] = system: SF-268
[8] = system: Hs-578T
[9] = system: K562
[10] = system: NCI-H460
[11] = system: HOP-92
[12] = system: RXF 393
[13] = system: UACC-257
[14] = system: UACC-62
[15] = system: OVCAR-3
[16] = system: A498
[17] = system: 786-0
[18] = system: SK-MEL-5
[19] = system: NCI-H522
[20] = system: LOX IMVI

Measured: GI50

CN(N=O)C(=O)N[C@H]1C(O)O[C@H](CO)[C@@H](O)[C@@H]1O (stereo partly drawn)
inactive: [1] > 750 µM | [2] 511 µM | [3] 537 µM | [4] 614 µM | [5] > 750 µM | [6] 658 µM | [7] 608 µM | [8] > 750 µM | [9] 498 µM | [10] 491 µM | [11] 548 µM | [12] 600 µM | [13] 600 µM | [14] 550 µM | [15] 653 µM | [16] 593 µM | [17] 309 µM | [18] 413 µM | [19] 578 µM

O=c1[nH]c(=O)n(C2OC(CO)C(O)C2O)c2ccsc12 (stereo not drawn)
inactive: [1] > 100 µM | [2] > 100 µM | [3] > 100 µM | [4] > 100 µM | [5] > 100 µM | [6] > 100 µM | [7] > 100 µM | [8] > 100 µM | [9] > 100 µM | [10] > 100 µM | [11] > 100 µM | [20] > 100 µM | [12] > 100 µM | [13] > 100 µM | [15] > 100 µM | [16] > 100 µM | [17] > 100 µM | [18] > 100 µM | [19] > 100 µM

COc1cccc(N2C(=O)C3CC(CC(C)(C)C)c4c([nH]c5ccccc45)C3C2=O)c1 (stereo not drawn)
inactive: [1] > 10 µM | [2] > 10 µM | [3] 1.48 µM | [4] > 10 µM | [5] 9.51 µM | [7] > 10 µM | [8] 3.5 µM | [9] > 10 µM | [10] 6.47 µM | [11] > 10 µM | [20] 9.44 µM | [12] > 10 µM | [13] > 10 µM | [14] > 10 µM | [15] > 10 µM | [16] > 10 µM | [17] 3.8 µM | [18] > 10 µM | [19] > 10 µM

CCOC(=O)CCC(NC(=O)N1CCN(c2c(C)nc(C)nc2O)CC1)C(=O)OCC (stereo not drawn)
inactive: [1] > 100 µM | [2] > 100 µM | [3] > 100 µM | [4] > 100 µM | [5] > 100 µM | [6] > 100 µM | [7] > 100 µM | [8] > 100 µM | [9] > 100 µM | [10] > 100 µM | [11] > 100 µM | [20] > 100 µM | [12] > 100 µM | [13] > 100 µM | [14] > 100 µM | [15] > 100 µM | [16] > 100 µM | [17] > 100 µM | [19] > 100 µM

CC(C)(C)OC(=O)N1C/C=C\C(=O)C2(OCCO2)c2ccccc21
inactive: [1] 34.2 µM | [2] 25.1 µM | [3] 25.8 µM | [4] 36.1 µM | [5] 22.5 µM | [6] 17.7 µM | [7] 34 µM | [8] 45 µM | [9] 22 µM | [10] 22.7 µM | [11] 15.9 µM | [20] 16.7 µM | [12] 21.2 µM | [13] 20.8 µM | [15] 15.7 µM | [16] > 100 µM | [17] 23.9 µM | [18] 16.5 µM | [19] 24 µM

N#Cc1c(O)n(-c2ccccc2)c(=O)c2c(N)n[nH]c12
inactive: [2] 64.9 µM | [3] > 100 µM | [4] > 100 µM | [5] > 100 µM | [6] > 100 µM | [7] > 100 µM | [8] > 100 µM | [9] 56.4 µM | [10] > 100 µM | [11] > 100 µM | [20] 21.5 µM | [12] > 100 µM | [13] > 100 µM | [14] 31.3 µM | [15] > 100 µM | [16] > 100 µM | [17] > 100 µM | [18] > 100 µM | [19] 69.8 µM

COc1cc2c(cc1OCc1ccccc1)NC(=O)[C@@H]1C[C@@H](O)CN1C2=O
inactive: [1] > 100 µM | [2] > 100 µM | [3] 47 µM | [4] > 100 µM | [5] > 100 µM | [6] > 100 µM | [7] > 100 µM | [8] > 100 µM | [9] > 100 µM | [10] > 100 µM | [11] > 100 µM | [20] > 100 µM | [12] > 100 µM | [13] > 100 µM | [14] > 100 µM | [15] > 100 µM | [16] > 100 µM | [17] > 100 µM | [18] > 100 µM | [19] > 100 µM

CC(=O)O[C@H]1[C@@H](N2CCCCC2)C[C@H]2[C@@H]3CC=C4C[C@@H](N5CCCC5)CC[C@]4(C)[C@H]3CC[C@@]21C
inactive: [1] > 100 µM | [2] > 100 µM | [3] 2.74 µM | [4] > 100 µM | [5] > 100 µM | [6] > 100 µM | [7] > 100 µM | [8] > 100 µM | [9] 4.07 µM | [10] 91.6 µM | [11] 91.8 µM | [20] 35.6 µM | [12] 32.7 µM | [13] 30.8 µM | [14] > 100 µM | [15] > 100 µM | [16] > 100 µM | [17] 36.7 µM | [18] 32.4 µM | [19] > 100 µM

O=C1C=C(c2ccccc2)O/C1=C/C(=O)c1ccc(Cl)cc1
inactive: [1] 16.6 µM | [2] 11.7 µM | [3] 2.93 µM | [4] > 10 µM | [5] 16.2 µM | [6] 23.3 µM | [7] 23.9 µM | [8] 22.1 µM | [9] 8.13 µM | [10] 20.2 µM | [11] 19.2 µM | [20] 13.3 µM | [12] 18.9 µM | [13] 20.7 µM | [14] 14 µM | [15] 17.5 µM | [16] 23.4 µM | [17] 15.9 µM | [18] 16.7 µM | [19] 11.1 µM

C=Cc1c(C)c(O)cc2c1-c1ccc(O)c(C)c1CC2
inactive: [1] 29.4 µM | [2] 23.4 µM | [3] 3.71 µM | [4] 17.1 µM | [5] 19.5 µM | [6] 14.8 µM | [7] 18.5 µM | [8] 3.11 µM | [10] 20.1 µM | [11] 23.2 µM | [20] 16.1 µM | [12] 10.9 µM | [13] 14.8 µM | [14] 7.5 µM | [15] 25.8 µM | [16] 11.6 µM | [17] 15.8 µM | [18] 16 µM | [19] 19.4 µM
